Marks after values point to notes of the source that are not given here.
What was measured:
Assay type in all cases: in vivo, human
TRAIL = TRAIL in nasal mucus in patients with hyposmia before and after treatment with theophylline; conditions: for Nasal mucus TRAIL: patients with hyposmia (5)
Source text: Table 16 illustrates detection and measurement of TRAIL in nasal mucus in patients with hyposmia before and after treatment with theophylline at various doses. […] Without limiting the scope of the present invention, other drugs are also considered with in the scope of the present invention for the treatment of various diseases. This is one of the example of the multiple examples of drugs to treat disease in which changes of various substances found in nasal mucus reflect biochemical normalization and functional improvement in the disease process.
Table 16 illustrates detection and measurement of TRAIL in nasal mucus in patients with hyposmia before and after treatment with theophylline at various doses.

nitric oxide (NO) = experiment: NO in nasal mucus in patients with hyposmia before and after theophylline treatment; conditions: for NO in nasal mucus: Patients (12)
Source text: Table 33 in the examples illustrates NO in nasal mucus in patients treated with theophylline in various doses before and after drug treatment. NO levels in nasal mucus changed following the treatment of patients with smell loss. […] Its continual measurement during treatment of the disorders helps in monitoring efficacy of therapy. The detection of NO in nasal mucus provides a non invasive method of diagnosing various diseases related to human physiology and pathology. The methods of the present invention include treatment of diseases by modulating the concentrations of NO by use of drugs or agents. The method of treatment is preferably by nasal administration.
Table 33 illustrates NO levels in nasal mucus in patients treated with Theophylline in various doses before and after drug treatment. NO levels in nasal mucus changed following the treatment of patients with smell loss. […] Its continual measurement during treatment of these disorders helps in monitoring efficacy of therapy. The detection of NO in nasal mucus provides a non invasive method of diagnosing various diseases related to human physiology and pathology.

TNFα = TNFα in nasal mucus in patients with hyposmia treated with theophylline
Source text: (§1) Tables 36-38 illustrate detection and measurement of TNFα, TNFR 1 and TNFR 2 in nasal mucus of patients with graded loss of smell following treatment with theophylline. […] Further, nasal mucus can be used as an index of disease, disease severity and efficacy of disease treatment. Without limiting the scope of the present invention, this approach is applicable to other substances in nasal mucus in relationship to other disease processes (e.g., cancer, stroke) and to follow-up of their treatment with any drug. […]
These studies were extended to reveal levels of TNFα in nasal mucus of patients with graded loss of smell following treatment with theophylline (Table 36). Smell loss was graded such that loss was greatest in Type I hyposmia, less in Type II and still less in Type III (I>II>III). […] In Type I hyposmia TNFα decreased 40% after treatment with 400 mg theophylline and 57% after treatment 600 mg. In Type II hyposmia TNFα decreased 11% after treatment with 600 mg theophylline.

TNFR 1 = TNFR 1 in nasal mucus in patients with hyposmia treated with theophylline
Source text: as §1
With increased smell loss pre treatment TNFR 1 levels were increased in nasal mucus in patients with Type I hyposmia (whose smell loss was increased over that of patients with Type II hyposmia). After theophylline treatment, as a dose of drug increased, TNFR 1 levels decreased in Type I associated with increases in smell function. […] The greater was the smell loss, the higher was the level of TNFR 1.

TNFR 2 = TNFR 2 in nasal mucus in patients with hyposmia treated with theophylline
Source text: Tables 36-38 illustrate detection and measurement of TNFα, TNFR 1 and TNFR 2 in nasal mucus of patients with graded loss of smell following treatment with theophylline. […] Further, nasal mucus can be used as an index of disease, disease severity and efficacy of disease treatment. Without limiting the scope of the present invention, this approach is applicable to other substances in nasal mucus in relationship to other disease processes (e.g., cancer, stroke) and to follow-up of their treatment with any drug.
Table 35 illustrates detection and measurement of TNFα, and soluble TNF receptors 1 and 2, moieties in the nasal mucus. TNFα, and soluble TNF receptors 1 and 2 increase in systems undergoing excessive apoptosis.
With a dose dependent increase of theophylline treatment levels of TNFR 2 in nasal mucus decreased consistent with a dose dependent increase in smell function. Levels of TNFR 2 in patients with Type I and Type II hyposmia decreased almost 50% on 600 mg theophylline consistent with their greatest return of smell function. At this highest level of theophylline levels of TNFR 2 were decreased in relationship to the decrease in smell function—TNFR 2, Type I>Type II>Type III; smell loss, Type I>Type II>Type III.

patients with hyposmia = experiment: Smell function in patients with hyposmia treated with theophylline
Source text: Theophylline may also restore smell function through other mechanisms.
Its continual measurement during treatment of these disorders helps in monitoring efficacy of therapy. The detection of NO in nasal mucus provides a non invasive method of diagnosing various diseases related to human physiology and pathology.

[1] = patients with hyposmia, theophylline at various doses
[2] = patients with hyposmia, theophylline in graded doses
[3] = patients with hyposmia, stepwise increase in theophylline treatment
[4] = HYPOSMIA TYPE I (7), theophylline 200 mg orally daily
[5] = HYPOSMIA TYPE I (7), theophylline 600 mg orally daily
[6] = HYPOSMIA TYPE II (10), theophylline 200 mg orally daily
[7] = HYPOSMIA TYPE II (10), theophylline 400 mg orally daily
[8] = HYPOSMIA TYPE II (10), theophylline 600 mg orally daily
[9] = HYPOSMIA TYPE III (2), theophylline 600 mg orally daily

Cn1c(=O)c2[nH]cnc2n(C)c1=O [theophylline]
Nasal mucus TRAIL (TRAIL; theophylline 200 mg): 855 µg/mL
Nasal mucus TRAIL (TRAIL; theophylline 400 mg): 791 µg/mL
Nasal mucus TRAIL (TRAIL; theophylline 600 mg): 247 µg/mL
change in TRAIL in nasal mucus (TRAIL; [1]): dose-dependent decrease in TRAIL
NO in nasal mucus (nitric oxide (NO); Theophylline 200 mg): 0.25 ± 0.01 µg/mL
NO in nasal mucus (nitric oxide (NO); Theophylline 400 mg): 0.40 ± 0.06 µg/mL
NO in nasal mucus (nitric oxide (NO); Theophylline 600 mg): 0.59 ± 0.16 µg/mL
change in NO in nasal mucus (nitric oxide (NO); [2]): increases in nasal mucus NO
TNF∝ in nasal mucus (TNFα; HYPOSMIA TYPE I (8), theophylline 400 mg orally daily): 15.6
TNF∝ in nasal mucus (TNFα; HYPOSMIA TYPE I (8), theophylline 600 mg orally daily): 11.2 ± 4.4
TNF∝ in nasal mucus (TNFα; HYPOSMIA TYPE II (13), theophylline 200 mg orally daily): 14.9 ± 2.5
TNF∝ in nasal mucus (TNFα; HYPOSMIA TYPE II (13), theophylline 400 mg orally daily): 11.5 ± 3.2
TNF∝ in nasal mucus (TNFα; HYPOSMIA TYPE II (13), theophylline 600 mg orally daily): 4.3 ± 0.8^a
TNF∝ in nasal mucus (TNFα; HYPOSMIA TYPE III (3), theophylline 600 mg orally daily): 1.2 ± 0.7^bc
decrease in TNFα in nasal mucus (TNFα; Type I hyposmia, after treatment 600 mg theophylline): 57%
decrease in TNFα in nasal mucus (TNFα; Type I hyposmia, after treatment with 400 mg theophylline): 40%
decrease in TNFα in nasal mucus (TNFα; Type II hyposmia, after treatment with 600 mg theophylline): 11%
change in TNFα levels in nasal mucus (TNFα; each hyposmia patient group, with each increased dose of theophylline): decreased in each patient group
TNF∝ in nasal mucus (TNFα; patients with hyposmia (24), Theophylline treatment (mg/l) 200): 20.0 ± 2.8 pg/mL
TNF∝ in nasal mucus (TNFα; patients with hyposmia (24), Theophylline treatment (mg/l) 400): 12.1 ± 2.1^d pg/ml
TNF∝ in nasal mucus (TNFα; patients with hyposmia (24), Theophylline treatment (mg/l) 600): 7.4 ± 1.8^a pg/ml
change in TNFα in nasal mucus (TNFα; [3]): significant dose-response decrease
TNFR 1 in nasal mucus (TNFR 1; [4]): 6,521 ± 1,304^c
TNFR 1 in nasal mucus (TNFR 1; HYPOSMIA TYPE I (7), theophylline 400 mg orally daily): 1,498
TNFR 1 in nasal mucus (TNFR 1; [5]): 1,832 ± 704^a
TNFR 1 in nasal mucus (TNFR 1; [6]): 1,462 ± 371
TNFR 1 in nasal mucus (TNFR 1; [7]): 1,087 ± 335
TNFR 1 in nasal mucus (TNFR 1; [8]): 862 ± 335
TNFR 1 in nasal mucus (TNFR 1; [9]): 585 ± 335
change in TNFR 1 levels in nasal mucus (TNFR 1; Type I hyposmia, as dose of drug increased): decreased
TNFR 1 in nasal mucus (TNFR 1; patients with hyposmia (19), Theophylline treatment 200): 3,148 ± 663 pg/ml
TNFR 1 in nasal mucus (TNFR 1; patients with hyposmia (19), Theophylline treatment 400): 1,146 ± 220^b pg/ml
TNFR 1 in nasal mucus (TNFR 1; patients with hyposmia (19), Theophylline treatment 600): 1,220 ± 286^ab pg/ml
change in soluble TNF receptor 1 in nasal mucus (TNFR 1; [3]): significant dose-response decrease
TNFR 2 in nasal mucus (TNFR 2; [4]): 3,100 ± 1,184
TNFR 2 in nasal mucus (TNFR 2; [5]): 1,491 ± 1,102
TNFR 2 in nasal mucus (TNFR 2; [6]): 1,378 ± 480
TNFR 2 in nasal mucus (TNFR 2; [7]): 1,014 ± 272
TNFR 2 in nasal mucus (TNFR 2; [8]): 553 ± 158
TNFR 2 in nasal mucus (TNFR 2; [9]): 436 ± 443
change in TNFR 2 levels in nasal mucus (TNFR 2; dose dependent increase of theophylline treatment): decreased
decrease in TNFR 2 levels in nasal mucus (TNFR 2; patients with Type I and Type II hyposmia, 600 mg theophylline): ~50%
TNFR 2 in nasal mucus (TNFR 2; patients with hyposmia (18), Theophylline treatment (mg orally daily) 200): 1,952 ± 339 pg/ml
TNFR 2 in nasal mucus (TNFR 2; patients with hyposmia (18), Theophylline treatment (mg orally daily) 400): 949 ± 180^c pg/ml
TNFR 2 in nasal mucus (TNFR 2; patients with hyposmia (18), Theophylline treatment (mg orally daily) 600): 916 ± 344 pg/mL
change in soluble TNF receptor 2 in nasal mucus (TNFR 2; [3]): significant dose-response decrease
smell function (patients with hyposmia; patients with hyposmia (loss of smell), general statement): restores smell function in some patients with hyposmia
smell function (patients with hyposmia; patients with hyposmia, 600 mg theophylline): restored smell function to or toward normal
smell function (patients with hyposmia; [1]): returned smell function to normal in a dose-dependent manner
smell function (patients with hyposmia; [2]): graded increases in smell function

From patent US8293489B2, “Methods for detection of biological substances” (priority 2007, dated 2012)
